According to patent US20260376293A1, “METHODS FOR STUDYING GPR158 PHARMACOLOGY AND IDENTIFICATION OF ITS LIGANDS” (UNIVERSITY OF FLORIDA RESEARCH FOUNDATION, INCORPORATED, priority 2022, published 2026):

Target: T1, GPR158 (Homo sapiens, UniProt Q5T848)
T1 sequence (Q5T848 24-1215): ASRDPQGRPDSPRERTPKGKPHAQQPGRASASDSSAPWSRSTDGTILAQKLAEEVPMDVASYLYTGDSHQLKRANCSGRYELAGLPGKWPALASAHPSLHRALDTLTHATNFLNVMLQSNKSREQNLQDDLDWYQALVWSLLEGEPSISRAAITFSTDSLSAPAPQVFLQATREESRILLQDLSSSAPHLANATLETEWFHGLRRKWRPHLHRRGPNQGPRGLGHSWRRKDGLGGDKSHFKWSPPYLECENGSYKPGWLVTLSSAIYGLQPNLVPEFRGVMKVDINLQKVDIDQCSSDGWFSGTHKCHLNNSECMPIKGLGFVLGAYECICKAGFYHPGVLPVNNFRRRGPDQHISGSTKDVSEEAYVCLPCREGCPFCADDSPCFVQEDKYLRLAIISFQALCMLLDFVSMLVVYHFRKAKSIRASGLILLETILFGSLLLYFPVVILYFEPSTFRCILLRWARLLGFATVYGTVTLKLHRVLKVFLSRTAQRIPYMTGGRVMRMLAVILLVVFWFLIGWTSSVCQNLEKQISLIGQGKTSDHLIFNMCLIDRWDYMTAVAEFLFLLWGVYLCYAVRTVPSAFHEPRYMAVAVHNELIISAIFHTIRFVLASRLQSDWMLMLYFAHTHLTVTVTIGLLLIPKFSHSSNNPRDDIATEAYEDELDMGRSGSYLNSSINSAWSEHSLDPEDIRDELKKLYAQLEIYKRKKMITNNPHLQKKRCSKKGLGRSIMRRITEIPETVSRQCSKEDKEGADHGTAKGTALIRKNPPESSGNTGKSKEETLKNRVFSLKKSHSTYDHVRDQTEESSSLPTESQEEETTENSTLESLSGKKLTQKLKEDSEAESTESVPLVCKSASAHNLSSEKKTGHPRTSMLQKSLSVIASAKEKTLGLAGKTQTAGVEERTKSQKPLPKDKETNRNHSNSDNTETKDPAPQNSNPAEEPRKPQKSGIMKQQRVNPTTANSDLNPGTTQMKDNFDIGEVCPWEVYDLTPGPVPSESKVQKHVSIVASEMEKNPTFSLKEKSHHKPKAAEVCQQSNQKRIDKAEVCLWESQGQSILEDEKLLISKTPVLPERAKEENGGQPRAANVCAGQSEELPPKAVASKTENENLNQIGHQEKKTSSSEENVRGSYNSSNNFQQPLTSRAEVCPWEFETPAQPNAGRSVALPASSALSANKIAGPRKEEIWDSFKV
Assay: BRET cAMP assay in U87 glioblastoma cells expressing GPR158
Assay type: cell-based
Design: expressed in transfected cells; host or cells: HEK293FT
Details: glycine 100 μM
Text: FIGS. 1A-1E Identification of glycine as GPR158 ligand. A) 3D model of the GPR158 cache domain with putative ligand-binding pocket is shown as surface presentation with cartoon representation at the background. B) Schematic of the screening assay design. C) Quantification of cAMP changes mediated by GPR158. BRET signal in response to amino acid application detected in control cells is subtracted from the signal from cells expressing GPR158 and the difference is plotted. Dotted lines denote 2×SD confidence interval. Data shown represent mean±s.e.m. determined from 3 independent experiments performed in triplicate. D) Time course of cAMP change induced with 10 μM of forskolin in glioblastoma cells (U87 MG) in response to glycine (100 μM) application (arrow) in empty cells (control) or cells expressing indicated components. E) Quantification of maximal amplitudes of responses to glycine in panel d. Data shown represent mean±s.e.m. determined from 3 independent experiments performed in triplicate. **p<0.01 (one-way ANOVA).
To study this effect in more detail the inventors analyzed the individual responses to glycine in a kinetic mode.
HEK293FT cells were seeded in a white flat-bottom 96 well plate (Greiner Bio-One) at 50,000 cells per well and transiently transfected using Metafectene Pro with the manufacturer instruction. […] BRET measurements were made in living cells using a microplate reader (PHERAstar FSX; BMG Labtech) equipped with two emission photomultiplier tubes. […]
HEK293FT cells or U87 MG cells (ATCC HTB-14) when indicated were co-transfected with the CAMP sensor Camyel and with untagged receptors (respectively: empty vector, GPR158). BRET ratio was determined by calculating the ratio of the light emitted by RLuc (475 nm with a 30 nm band path width) over the light emitted by the Venus (535 nm with a 30 nm band path width) in order to measure an increase of the signal when cAMP increase. ΔBRET was calculated by subtracting the ctrl cell BRET result from GPR158 expressing cells BRET result in order to get specifically the signal from GPR158 removing all the non-specific signal. […]

**Q.** Which results are given for `NCC(=O)O` [glycine]?
**A.** cAMP change in cells lacking GPR158 (U87 cells without GPR158): No glycine-induced changes in cAMP; cAMP change with co-expressed RGS7/Gβ5 (U87 cells, GPR158 + RGS7/Gβ5): further potentiated; cAMP change (U87 glioblastoma cells expressing GPR158, forskolin 10 μM): resulted in cAMP decrease
